Laboratory results published in patent US20220047527A1, “FOOD-AND-DRINK COMPOSITION CONTAINING ASTAXANTHIN” (AstaReal Co., Ltd., priority 2016, published 2022).
Read-outs that look alike come from different tables or passages of the source.

Legend:
[1] = as high as that of vitamin E; cited from earlier work
[2] = previously: 12 mg/day of astaxanthin and 40 mg/day of tocotrienol for eight weeks; cited from earlier work
[3] = Study 2: temporal change of human blood (plasma) astaxanthin level on long-term ingestion; type: in vivo
Procedure: This study is a study in humans to confirm how the blood (plasma) astaxanthin level changes through long-term ingestion of astaxanthin. While the blood (serum) astaxanthin level was measured at the completion of ingestion (after 12-week ingestion) in Study 1, Study 2 is, specifically, a study in humans to confirm how the blood (plasma) astaxanthin level behaves in the case that the period of ingestion is shorter than 12 weeks.
Ten healthy Japanese men and women at age of 20 years or older and younger than 50 years
Each subject ingested two capsules per day, each capsule containing 60 mg (6 mg in terms of the free form of astaxanthin) of Haematococcus algae extract and 270 mg of edible fat and oil, with water 30 minutes after breakfast (12 mg/day in terms of the free form of astaxanthin) for 42 days.
Blood sampling was performed one day, six days, 13 days, 20 days, 27 days, 34 days, and 42 days after the initiation of ingestion of the capsules to obtain the plasma. The plasma astaxanthin level was measured by using the method in [5-4] in Study 1 with HPLC.

[4] = tested on: human having a sense of fatigue; test: Continuous calculation task (Uchida-Kraepelin test), task performance with a mental load; type: in vivo; settings: after 8-week ingestion, vs control group (FIG. 18)
Procedure: A mental load was applied to each subject by a continuous calculation task with the Uchida-Kraepelin test (Nisseiken Inc., Japan) consisting of two sessions of a 15-min serial addition task (total 30 min), with a 5-min rest period between the first and second sessions. Specifically, the subjects were instructed to sequentially add two adjoining single-digit numbers (combination of 3, 4, 5, 6, 7, 8, and 9), record only the last digit (one's place) of the sum, spend only 1 min on each line, and then quickly move on to the next line of numbers for calculation. This task was continued for 15 min in each session. After the completion of the task, the number of calculations and the number of wrong answers were counted to calculate the percentage of correct answers, and the results for the first session were subtracted from those for the second session to determine change in task performance in the second session, which was used as the task performance with a mental load.

salivary cortisol = test: Measurement of salivary cortisol (CLIA); type: in vivo, human; settings: for salivary cortisol concentration: after 8-week ingestion
Description: Salivary cortisol, which was examined as a biochemical index for a mental load, is used as a stress marker because of simplicity of measurement due to the high correlation with blood cortisol, and known to be increased by an acute mental stress, for example, caused at making a speech in front of others or doing mental calculation or by continuous, high-intensity exercise. Because the salivary cortisol concentration is known to show circadian variation, being high in the morning and then declining as the night approaches, mental load application (calculation load; Uchida-Kraepelin test) was performed in the morning in this study. Salivary secretory immunoglobulin A (sIgA) is an antibody produced by B cells that inhibits the proliferation of pathogens on the mucosa of the oral cavity, airway, intestines, and other organs. It is known that reduction of sIgA in saliva is associated with the development of upper respiratory tract infection and that salivary sIgA concentration decreases under chronic stress and increases in a relaxed state.
Prior to saliva sampling, the subjects were instructed to brush their teeth and place a cotton swab (Salivette) in the mouth for 2 minutes without chewing to thoroughly soak the cotton swab with saliva. Saliva samples were collected twice, in the morning of the day of assessment (before load application) and after mental load application (calculation load; Uchida-Kraepelin test). Salivary cortisol concentration was measured with a competitive chemiluminescent immunoassay (CLIA) kit (Chemilumi ACS-E Cortisol II; Siemens Healthcare Diagnostics Inc.).

[5] = Adverse events in Study 1; type: in vivo, human
[6] = tested on: human having a sense of fatigue; test: Cycling task on a bicycle ergometer, task performance with a physical load; type: in vivo; settings: between the groups (FIG. 19)
Procedure: A physical load was applied by a cycling task on a bicycle ergometer. Specifically, the subjects were instructed to pedal for 30 min with a rotation rate of the pedal adjusted to maintain the heart rate at 120 to 130 HR for men and 110 to 120 HR for women. The magnitude of the load was set at a constant level of 80 W for men and 70 W for women. The distance cycled (km) in 30 min was measured, which was used as the task performance with a physical load.

[7] = tested on: human having a sense of fatigue; test: OSA sleep analysis (OSA sleep inventory MA version); type: in vivo
Procedure: A placebo-controlled, randomized, double-blind, parallel-group study was employed for ingestion of the test food, and two groups, namely, the control group (placebo group) with ingestion of a capsule not containing astaxanthin and the astaxanthin group with ingestion of a capsule containing 6 mg of astaxanthin (120 mg of Haematococcus algae extract and 10 mg of tocotrienol mixture derived from palm oil) were compared through a double-blind method. For ingestion of the test food, the subjects were instructed to ingest one capsule twice daily (total 12 mg of astaxanthin (240 mg of Haematococcus algae extract and 20 mg of tocotrienol mixture derived from palm oil) in two capsules per day), one after breakfast (or after the first meal of the day if no breakfast was taken) and the other after dinner, with water or lukewarm water within 30 min of eating. The overall duration for ingestion was 8 weeks (12 weeks only for the OSA sleep analysis). The subjects were also instructed to record their test food ingestion, drinking, and exercise in a diary every day, from the first day to the last day of ingestion.
In accordance with a method reported in Yukari Yamamoto, Hideki Tanaka, Miki Takase, Katuo Yamazaki, Kazuo Azumi, and Shuichiro Shirakawa: “Development and standardization of OSA sleep inventory (MA version) for middle-aged and elderly individuals”, Brain Science and Mental Disorders, vol. 10, p 401-409, 1999, the subjects were instructed to evaluate with respect to items listed in the OSA sleep inventory, and the results were analyzed. The assessment was performed once in the morning of the day of assessment (before load application). The OSA sleep inventory (MA version) consists of 16 items in terms of five factors, namely, First factor: sleepiness on rising, Second factor: initiation and maintenance of sleep, Third factor: frequent dreaming, Fourth factor: refreshing, and Fifth factor: sleep length, and the subjects were instructed to answer each question from four choices, and the results were converted to scores with a conversion table for analysis.

[8] = 2 capsules/day (12 mg/day free form) for 42 days (FIG. 20)
[9] = throughout the study period, 12 mg/day
[10] = astaxanthin group vs pre-ingestion, no significant difference (FIG. 2)

Structure (SMILES): CC1=C(/C=C/C(C)=C/C=C/C(C)=C/C=C/C=C(C)/C=C/C=C(C)/C=C/C2=C(C)C(=O)C(O)CC2(C)C)C(C)(C)CC(O)C1=O (stereo not drawn) [astaxanthin, 3,3′-dihydroxy-β,β-carotene-4,4′-dione]
- antioxidative effect relative to vitamin E [1]: 1000 times
- adverse event [2]: No adverse event
- human blood (plasma) astaxanthin level at plateau [3, 8]: approximately 200 ng/mL
- time after initiation of ingestion at which plasma astaxanthin level plateaued [3, 8]: about six
- human blood (plasma) astaxanthin level during continued ingestion ([3]; as long as ingestion of astaxanthin-containing food was continued): not lowered
- change in the number of wrong answers in the second session, continuous calculation task [4]: significant improvement
- percentage of correct answers in the second session, continuous calculation task [4]: significant improvement
- salivary cortisol concentration after vs before mental load application (salivary cortisol; after 4-week ingestion (FIG. 7)): significantly lower
- salivary cortisol concentration (salivary cortisol; after mental load application): 0.38 ± 0.03 µg/dL
- salivary cortisol concentration (salivary cortisol; before mental load application): 0.44 ± 0.03 µg/dL
- adverse event ([5]; this study): no adverse event was found
- adverse subjective symptoms [5, 9]: none of the subjects complained
- medical examination by a physician [5, 9]: no remarkable abnormalities
- cycling distance ([6]; after 4-week ingestion): no significant difference
- cycling distance ([6]; after 8-week ingestion): no significant difference
- OSA First factor (sleepiness on rising) [7, 10]: large increase
- OSA Fourth factor (refreshing) [7, 10]: large increase
- OSA Second factor (initiation and maintenance of sleep) [7, 10]: large increase
- OSA Fifth factor (sleep length) ([7]; astaxanthin group, 12 mg/day, vs pre-ingestion (FIG. 2)): marginally significant increase
- degree of improvement in Fifth factor (sleep length) compared with chamomile tea ([7]; vs literature: 200 mL chamomile tea 1 hour before bedtime over three days): larger
